Assay results as given in ChEMBL document CHEMBL1201862, “PubChem BioAssay data set” (2004).
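Method: 48-hour compound exposure of cells in 96-well plates, five concentrations, linear interpolation of endpoints. Here, GI50 denotes the concentration required for 50% inhibition of growth.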 Active and inactive are the calls of the source. Rule as the data show it: active = GI50 up to about 1.1 µM and inactive = higher.

Experiments:
Assay in all cases: growth of human tumour cells (NCI), 48 h
[1] = test system: Malme-3M
[2] = test system: COLO 205
[3] = test system: SK-OV-3
[4] = test system: HCT-15
[5] = test system: UACC-62
[6] = test system: NCI-H226
[7] = test system: SW-620
[8] = test system: MDA-N
[9] = test system: CAKI-1
[10] = test system: HT-29
[11] = test system: OVCAR-4
[12] = test system: SF-539
[13] = test system: A549
[14] = test system: SK-MEL-28
[15] = test system: HCC 2998
[16] = test system: HCT-116
[17] = test system: T47D
[18] = test system: TK-10

Compound	GI50 [1]	GI50 [2]	GI50 [3]	GI50 [4] [µM]	GI50 [5]	GI50 [6]	GI50 [7]	GI50 [8]	GI50 [9]	GI50 [10]	GI50 [11]	GI50 [12]	GI50 [13]	GI50 [14]	GI50 [15]	GI50 [16]	GI50 [17]	GI50 [18]
NC(=O)c1ccc(S(=O)(=NS(=O)(=O)c2ccccc2)c2ccc(C(N)=O)cc2)cc1	> 100 µM (inactive)	> 100 µM (inactive)	> 100 µM (inactive)	> 100	> 100 µM (inactive)	> 100 µM (inactive)	> 100 µM (inactive)	> 100 µM (inactive)	> 100 µM (inactive)	> 100 µM (inactive)	> 100 µM (inactive)	> 100 µM (inactive)	> 100 µM (inactive)	> 100 µM (inactive)	> 100 µM (inactive)	> 100 µM (inactive)	> 100 µM (inactive)	> 100 µM (inactive)
C[C@H](CCC1=NCCN1)[C@H]1CC[C@H]2[C@@H]3CC[C@@H]4C[C@H](O)CC[C@]4(C)[C@H]3CC[C@]12C	2.44 µM (inactive)	1.95 µM (inactive)	18.8 µM (inactive)	18.5	2.07 µM (inactive)	7.46 µM (inactive)	6.84 µM (inactive)	10.1 µM (inactive)	3.51 µM (inactive)	0.575 µM (active)	12.9 µM (inactive)	10.3 µM (inactive)	8 µM (inactive)	2.08 µM (inactive)	5.15 µM (inactive)	4.72 µM (inactive)	13.1 µM (inactive)	7.74 µM (inactive)
COc1ccc(-c2c3c(n(C4OC(COC(C)=O)C(OC(C)=O)C(OC(C)=O)C4OC(C)=O)c(=S)c2C#N)CCCC3)cc1 (stereo not drawn)	82.6 µM (inactive)	69.5 µM (inactive)	> 100 µM (inactive)	41.5	20 µM (inactive)	> 100 µM (inactive)	51.5 µM (inactive)	91.4 µM (inactive)	20.5 µM (inactive)	> 100 µM (inactive)	25.5 µM (inactive)	69.5 µM (inactive)	64.1 µM (inactive)	61.9 µM (inactive)	> 100 µM (inactive)	79.4 µM (inactive)	34.3 µM (inactive)	> 100 µM (inactive)
Nc1nc(Cl)cc(NCC2(CO)COC2)n1	> 100 µM (inactive)	> 100 µM (inactive)	> 100 µM (inactive)	> 100	> 100 µM (inactive)	> 100 µM (inactive)	> 100 µM (inactive)	> 100 µM (inactive)	> 100 µM (inactive)	> 100 µM (inactive)	> 100 µM (inactive)	> 100 µM (inactive)	> 100 µM (inactive)	> 100 µM (inactive)	> 100 µM (inactive)	> 100 µM (inactive)	53.8 µM (inactive)	> 100 µM (inactive)
O=C(CCC=C(S(=O)(=O)c1ccccc1)S(=O)(=O)c1ccccc1)c1ccccc1	4.45 µM (inactive)	7.11 µM (inactive)	25.4 µM (inactive)	5.98	6.92 µM (inactive)	17.4 µM (inactive)	3.4 µM (inactive)	3.69 µM (inactive)	5.96 µM (inactive)	4.91 µM (inactive)	9.33 µM (inactive)	2.96 µM (inactive)	17.1 µM (inactive)	12.1 µM (inactive)	7.66 µM (inactive)	3.42 µM (inactive)	5.43 µM (inactive)	6.38 µM (inactive)
CCC1(OC(=O)CNC)C(=O)OCc2c1cc1n(c2=O)Cc2cc3ccccc3nc2-1 (stereo not drawn)	0.0543 µM (active)	0.148 µM (active)	< 0.01 µM (active)	0.0942	< 0.01 µM (active)	< 0.01 µM (active)	< 0.01 µM (active)	0.0419 µM (active)	< 0.01 µM (active)	0.0335 µM (active)	0.0977 µM (active)	< 0.01 µM (active)	< 0.01 µM (active)	0.213 µM (active)	0.204 µM (active)	0.015 µM (active)	< 0.01 µM (active)	1.29 µM (inactive)
NCC(=O)NC(CO)C(=O)O (stereo not drawn)	> 100 µM (inactive)	> 100 µM (inactive)	> 100 µM (inactive)	> 100	> 100 µM (inactive)	> 100 µM (inactive)	> 100 µM (inactive)	> 100 µM (inactive)	> 100 µM (inactive)	> 100 µM (inactive)	> 100 µM (inactive)	> 100 µM (inactive)	> 100 µM (inactive)	> 100 µM (inactive)	> 100 µM (inactive)	> 100 µM (inactive)	> 100 µM (inactive)	> 100 µM (inactive)
C[C@]12CC[C@H]3[C@@H](CCC4=CC(=O)C=C[C@@]43OC(=O)C(F)(F)F)[C@@H]1CCC2=O	0.558 µM (active)	> 100 µM (inactive)	> 100 µM (inactive)	> 100	> 85.5 µM (inactive)	> 100 µM (inactive)	> 100 µM (inactive)	> 100 µM (inactive)	> 100 µM (inactive)	> 100 µM (inactive)	> 100 µM (inactive)	> 100 µM (inactive)	> 52.6 µM (inactive)	> 100 µM (inactive)	> 100 µM (inactive)	> 34.7 µM (inactive)	> 100 µM (inactive)	> 100 µM (inactive)
CN(C)CCN(C)c1ccc2c(=O)n(CCN(C)C)c(=O)n3c4ccccc4c(=O)c1c23	1.23 µM (inactive)	0.647 µM (active)	1.55 µM (inactive)	0.179	0.993 µM (active)	0.29 µM (active)	0.119 µM (active)	0.859 µM (active)	< 0.026 µM (active)	0.397 µM (active)	0.364 µM (active)	0.324 µM (active)	0.0353 µM (active)	2.12 µM (inactive)	0.454 µM (active)	0.194 µM (active)	1.09 µM (active)	1.51 µM (inactive)
CN(C)C=C1C(=O)c2c(Br)sc(Br)c2C1=O	14.3 µM (inactive)	18.5 µM (inactive)	22 µM (inactive)	18.1	17.1 µM (inactive)	16.3 µM (inactive)	28.3 µM (inactive)	19.7 µM (inactive)	18.1 µM (inactive)	28.8 µM (inactive)	13.8 µM (inactive)	18.2 µM (inactive)	36.4 µM (inactive)	15.3 µM (inactive)	13 µM (inactive)	21.8 µM (inactive)	29.9 µM (inactive)	28.4 µM (inactive)
CN(C)CCCNC(=O)CCNC(=O)c1cc(NC(=O)c2cc(NC(=O)c3cc(NC(=O)c4nc(NC(=O)CCCNC(=O)c5cc(NC(=O)c6cc(NC(=O)c7cc(NC(=O)c8nccn8C)cn7C)cn6C)cn5C)cn4C)cn3C)cn2C)cn1C	> 100 µM (inactive)	> 100 µM (inactive)	> 100 µM (inactive)	> 100		> 100 µM (inactive)	> 100 µM (inactive)	> 100 µM (inactive)	> 100 µM (inactive)	> 100 µM (inactive)	> 100 µM (inactive)	> 100 µM (inactive)	> 100 µM (inactive)	> 100 µM (inactive)	> 100 µM (inactive)	> 100 µM (inactive)	> 100 µM (inactive)	> 100 µM (inactive)
CN(C)c1ccc(/C=C(\NC(=O)c2ccccc2)C(=O)Nc2ccccc2C(=O)NCc2ccccc2)cc1	> 100 µM (inactive)	> 100 µM (inactive)	> 100 µM (inactive)	> 100	> 100 µM (inactive)	50.8 µM (inactive)	> 100 µM (inactive)	> 100 µM (inactive)	> 100 µM (inactive)	> 100 µM (inactive)	58.2 µM (inactive)	66.5 µM (inactive)	> 100 µM (inactive)	> 100 µM (inactive)	> 100 µM (inactive)	> 100 µM (inactive)	> 100 µM (inactive)	> 100 µM (inactive)
Cc1cc(S(=O)(=O)Nc2nc(N)n[nH]2)c(Cl)cc1Cl	> 10 µM (inactive)	> 10 µM (inactive)	> 10 µM (inactive)	> 10	> 10 µM (inactive)	> 10 µM (inactive)	> 10 µM (inactive)	> 10 µM (inactive)	> 10 µM (inactive)	> 10 µM (inactive)	> 10 µM (inactive)	> 10 µM (inactive)	> 10 µM (inactive)	> 10 µM (inactive)	> 10 µM (inactive)	> 10 µM (inactive)	> 10 µM (inactive)	> 10 µM (inactive)
CC(C)(C)C#CI1OC(=O)c2ccccc21	3.03 µM (inactive)	2.28 µM (inactive)	11.4 µM (inactive)	3.38	4.08 µM (inactive)	4.63 µM (inactive)	3.44 µM (inactive)	4.17 µM (inactive)	3.11 µM (inactive)	4.16 µM (inactive)	2.72 µM (inactive)	2.82 µM (inactive)	8.49 µM (inactive)	4.34 µM (inactive)	9.53 µM (inactive)	2.48 µM (inactive)	3.68 µM (inactive)	3.86 µM (inactive)
Oc1c(CN2CCOCC2)ccc2cccnc12	> 10 µM (inactive)	> 10 µM (inactive)	> 10 µM (inactive)	4.59		> 10 µM (inactive)	> 10 µM (inactive)	> 10 µM (inactive)	5.16 µM (inactive)	> 10 µM (inactive)	> 10 µM (inactive)	> 10 µM (inactive)	> 10 µM (inactive)	> 10 µM (inactive)	> 10 µM (inactive)	6.55 µM (inactive)	7.41 µM (inactive)	> 10 µM (inactive)
